ChEMBL document CHEMBL4385630, “The synthesis and evaluation of quinolinequinones as anti-mycobacterial agents” (2019)
≈ marks a conversion by molar mass, not a printed value. Calls of active or inactive are those of the source. The rule behind the calls is not given here.

Tests used:
[1] = test system: Mycobacterium tuberculosis; assay: Antimycobacterial activity against Mycobacterium tuberculosis incubated for 7 days by resazurin dye based assay; type: functional; conditions: 168 h
[2] = Electrochemical behavior of the compound in acetonitrile assessed as redox potential E2 at 1 mM using Ag/Ag+ electrode by cyclic voltammetry
[3] = Electrochemical behavior of the compound in acetonitrile assessed as redox potential E1 at 1 mM using Ag/Ag+ electrode by cyclic voltammetry
[4] = test system: Mycobacterium tuberculosis; assay: Antimycobacterial activity against Mycobacterium tuberculosis MC2 6230 assessed as reduction in cell viability incubated for 5 days by resazurin based method; type: functional; conditions: MC2 6230, 120 h
[5] = test system: Mycolicibacterium smegmatis MC2 155; assay: Activation of NDH-2 in Mycobacterium smegmatis MC2 155 inverted membrane vesicles assessed as increase in oxygen consumption rate in presence of NADH by fluorespirometry
[6] = Electrochemical behavior of the compound in acetonitrile/tolunene assessed as redox potential E1 at 1 mM using Ag/Ag+ electrode by cyclic voltammetry
[7] = Electrochemical behavior of the compound in acetonitrile/tolunene assessed as redox potential E2 at 1 mM using Ag/Ag+ electrode by cyclic voltammetry
[8] = test system: Mycobacterium tuberculosis; assay: Antimycobacterial activity against Mycobacterium tuberculosis H37Rv incubated fro 96 hrs; type: functional

Compound | MIC [1] [µM] | Activity [2] [V] | Activity [3] [V] | MIC [4] [µM] | Activity [5] | Activity [6] [V] | Activity [7] [V] | MIC [8] [µM]
O=C1C(NCCCl)=C(Cl)C(=O)c2ncccc21 | 8 (≈ 2.17 µg/mL) |  |  |  |  |  |  | 
CC1=CC(=O)c2ccccc2C1=O |  | -1.27 | -0.7 |  |  |  |  | 
COc1ccc(CNC2=C(Cl)C(=O)c3ncccc3C2=O)cc1 |  | -1.18 | -0.61 | 32 (≈ 10.5 µg/mL) |  |  |  | 
C#CCNC1=C(Cl)C(=O)c2cccnc2C1=O |  | -1.07 | -0.49 | 128 (≈ 31.6 µg/mL) |  |  |  | 
Cc1ccc2c(n1)C(=O)C(N1CCCCC1)=C(Cl)C2=O |  | -1.17 | -0.61 | 256 (≈ 74.4 µg/mL) |  |  |  | 
C#CCNC1=C(Cl)C(=O)c2ncccc2C1=O |  | -1.1 | -0.5 | 8 (≈ 1.97 µg/mL) | Active |  |  | 
CCCCCCCCNC1=C(Cl)C(=O)c2ncccc2C1=O |  | -1.26 | -0.67 | 16 (≈ 5.13 µg/mL) |  |  |  | 
Cc1ccc2c(n1)C(=O)C(Cl)=C(NCCc1ccccc1)C2=O |  | -1.3 | -0.73 | 128 (≈ 41.8 µg/mL) |  |  |  | 
Cc1ccc2c(n1)C(=O)C(NCCc1ccccc1)=C(Cl)C2=O |  | -1.3 | -0.7 | 16 (≈ 5.23 µg/mL) |  |  |  | 
Cc1ccc2c(n1)C(=O)C(Cl)=C(N(C)C)C2=O |  | -1.11 | -0.62 | 512 (≈ 128 µg/mL) |  |  |  | 
CCCNC1=C(Cl)C(=O)c2ccc(C)nc2C1=O |  | -0.97 | -0.56 | 128 (≈ 33.9 µg/mL) |  |  |  | 
CCCCCCCCCCCCCCc1ccc(NC2=C(Cl)C(=O)c3ncccc3C2=O)cc1 |  |  |  | > 512 |  | -0.78 | -1.1 | 
CCCCCCCCCCCCCCc1ccc(NC2=C(Cl)C(=O)c3cccnc3C2=O)cc1 |  |  |  | > 512 |  | -0.44 | -1 | 
C#CCNC1=C(Cl)C(=O)c2ccc(C)nc2C1=O |  | -1.1 | -0.51 | 256 (≈ 66.7 µg/mL) |  |  |  | 
O=C1C(NCCc2ccccc2)=C(Cl)C(=O)c2ncccc21 |  | -1.15 | -0.6 | 128 (≈ 40 µg/mL) |  |  |  | 
NNC(=O)c1ccncc1 [ISONIAZID] |  |  |  | 0.2 (≈ 0.0274 µg/mL) |  |  |  | 
O=C1C(NC2CCCCCCC2)=CC(=O)c2ncccc21 |  |  |  |  |  |  |  | 3.5 (≈ 0.995 µg/mL)
Cc1ccc2c(n1)C(=O)C(N(C)C)=C(Cl)C2=O |  | -1.13 | -0.6 | > 512 |  |  |  | 

Compound | MIC [1] [µM] | Activity [2] [V] | Activity [3] [V] | MIC [4] [µM] | Activity [5] | Activity [6] [V] | Activity [7] [V] | MIC [8] [µM]
Cc1ccc2c(n1)C(=O)C(NC(C)(C)C)=C(Cl)C2=O |  | -1.1 | -0.59 | > 512 |  |  |  | 
Cc1ccc2c(n1)C(=O)C(Nc1ccccc1)=C(Cl)C2=O |  | -0.9 | -0.44 | 256 (≈ 76.5 µg/mL) |  |  |  | 
C#CCNC1=C(Cl)C(=O)c2nc(C)ccc2C1=O |  | -1.05 | -0.55 | 64 (≈ 16.7 µg/mL) |  |  |  | 
O=C1C(Nc2ccccc2)=C(Cl)C(=O)c2ncccc21 |  | -1.06 | -0.46 | > 512 |  |  |  | 
CCCNC1=C(Cl)C(=O)c2ncccc2C1=O |  | -1.16 | -0.6 | 128 (≈ 32.1 µg/mL) |  |  |  | 
COc1ccc(CNC2=C(Cl)C(=O)c3ccc(C)nc3C2=O)cc1 |  | -1.1 | -0.52 | 16 (≈ 5.48 µg/mL) |  |  |  | 
Cc1ccc2c(n1)C(=O)C(Cl)=C(NC(C)(C)C)C2=O |  | -1.25 | -0.69 | 256 (≈ 71.4 µg/mL) |  |  |  | 
Cc1ccc2c(n1)C(=O)C(Cl)=C(Nc1ccccc1)C2=O |  | -1.05 | -0.47 | 512 (≈ 153 µg/mL) |  |  |  | 
CCCCCCCc1ccc(NC2=C(Cl)C(=O)c3ncccc3C2=O)cc1 |  | -1.15 | -0.58 | 64 (≈ 24.5 µg/mL) |  |  |  | 
Cc1ccc2c(n1)C(=O)C(Cl)=C(N1CCCCC1)C2=O |  | -1.13 | -0.57 | 128 (≈ 37.2 µg/mL) |  |  |  | 
CCCCCCCCNC1=C(Cl)C(=O)c2cccnc2C1=O |  | -1.27 | -0.68 | 64 (≈ 20.5 µg/mL) |  |  |  | 
O=C1C(Cl)=C(Nc2ccccc2)C(=O)c2ncccc21 |  | -1 | -0.42 | 512 (≈ 146 µg/mL) |  |  |  | 
CCCCCCCCNC1=C(Cl)C(=O)c2nc(C)ccc2C1=O |  | -1.27 | -0.72 | 128 (≈ 42.9 µg/mL) |  |  |  | 
CCCNC1=C(Cl)C(=O)c2nc(C)ccc2C1=O |  | -1.17 | -0.6 | 512 (≈ 136 µg/mL) |  |  |  | 
CCCNC1=C(Cl)C(=O)c2cccnc2C1=O |  | -1.16 | -0.59 | 128 (≈ 32.1 µg/mL) |  |  |  | 
O=C1C(Cl)=C(NCCc2ccccc2)C(=O)c2ncccc21 |  | -1.21 | -0.64 | 16 (≈ 5 µg/mL) |  |  |  | 
COc1ccc(CNC2=C(Cl)C(=O)c3cccnc3C2=O)cc1 |  | -1.24 | -0.63 | 16 (≈ 5.26 µg/mL) |  |  |  | 
CCCCCCCc1ccc(NC2=C(Cl)C(=O)c3cccnc3C2=O)cc1 |  | -1.08 | -0.57 | 32 (≈ 12.3 µg/mL) |  |  |  | 
